Several values for one entry are separate records, joined by “and”; a condition that tells them apart may be missing. Identical values can stand only once.
System: P. falciparum 3D7 growth, pLDH absorbance
Assay: P. falciparum 3D7 growth inhibition, dose response, strain 3D7 (AID 2305)

Point of comparison: `c1ccc2[nH]c(-c3ccc(-c4ccc(CN5CCN(c6ccncc6)CC5)cc4)s3)nc2c1`, IC50 200 nM. Against it:
- CS(=O)(=O)N(c1ccccc1)c1cc(C(=O)N[C@@H](Cc2ccccc2)[C@H](O)CNC2CCCCC2)cc(N2CCCC2=O)c1 — 2.5-fold lower, 80 nM
- COc1ccc2nccc([C@@H](O)CN3CCC(NC(=O)c4ccc(OC)c(N)c4)CC3)c2c1 — 3.5-fold higher, 710 nM
- Cc1cc(N)c2cc(NC(=O)c3cccc4ccccc34)ccc2n1 — 4.2-fold higher, 840 nM
- O=C(Nc1ccc(OC2CCN(Cc3ccccc3)C2)c(Cl)c1)c1ccsc1 (stereo not given) — 3.6-fold higher, 730 nM
- O=C(Nc1ccc2c(c1)OCO2)NC1CCN(c2ccnc(Nc3ccc(F)cc3)n2)C1 (stereo not given) — 3.7-fold higher, 740 nM
- CSc1cccc(Nc2nc3ccc(S(=O)(=O)NC(C)C(C)C)cc3n2[C@H](C)C(C)(C)C)c1 (stereo not given in full) — 2.2-fold higher, 450 nM
- O=C(NCc1ccc(Cl)c(Cl)c1)c1cc(CNC2CCNCC2)ccc1O — 4.3-fold higher, 860 nM
- O=C(Nc1cccc(C(F)(F)F)c1)NC1CCN(c2ccnc3ccccc23)CC1 — 5-fold higher, 990 nM
- COc1ccc(COc2c(OC)cc(Cc3cnc(N)nc3N)cc2OC)cc1 — 4.5-fold higher, 910 nM
- C#CCOc1ccc2ccccc2c1CNCCCCCCNCc1c(OCC#C)ccc2ccccc12 — 3.9-fold higher, 780 nM
- C1=CN(Cc2ccccc2)C=CC1=C1C=Nc2ccccc21 — 3.8-fold higher, 760 nM
- CC(C)(C)OC(=O)NCc1ccc(Nc2nnc(-c3ccc(OCC(=O)NCc4ccc(C(C)(C)C)cc4)c([N+](=O)[O-])c3)o2)cc1 — 4-fold higher, 800 nM
- Cc1ccccc1C1CCN(C2CCC(NC(=O)/C=C/c3ccc(OC(F)(F)F)cc3)CC2)CC1 (stereo not given) — 4.3-fold higher, 860 nM
- Cc1cccc2[nH]c(-c3cccc(-c4ccc(NC(=O)C5CCN(C)CC5)cc4)c3)nc12 — 4.2-fold higher, 830 nM
- N#Cc1ccc(N2CCN(Cc3cccc(-c4ccc(-c5nc6ccc(C(F)(F)F)cc6[nH]5)cc4)c3)CC2)nc1 — 3.5-fold higher, 700 nM
- CC(C)COc1ccc(Cl)cc1Cc1ccc(-c2nc3ccc(Cl)cc3[nH]2)o1 — 4.7-fold higher, 930 nM
- NC(=O)c1cccc(C(=O)Nc2cccc(-c3csc(-c4nc5ccccc5[nH]4)c3)c2)c1 — 1.5-fold lower, 130 nM
- COc1cc(NC(=O)c2cc([N+](=O)[O-])ccc2NC(=O)CNC2CCCC(C)C2C)cc(OC)c1 (stereo not given) — 5.2-fold higher, 1040 nM
- Cc1cc2nc(-c3cc(Br)ccc3O)c(-c3cc(Br)ccc3O)nc2cc1C — 4.2-fold higher, 850 nM
- CC(C)c1cn2c3c(cc(C(=O)N[C@@H](Cc4ccccc4)[C@H](O)CNC4CCCCC4)cc13)N(C)S(=O)(=O)CC2 — 6.7-fold lower, 30 nM
- Brc1cc(Br)c2c(c1)C(NCCCNc1nc3ncccc3[nH]1)CCN2 (stereo not given) — 3-fold higher, 590 nM
- COc1ccc2nccc([C@@H](O)CN3CCC(NCc4cc5ccc(C#N)cc5[nH]4)CC3)c2c1 — 2-fold lower, 100 nM
- Cc1ccc(C(c2nnnn2C2CCCC2)N(Cc2ccco2)Cc2ccccc2Cl)cc1 (stereo not given) — 4.8-fold higher, 960 nM
- O=C(OCc1ccccn1)c1nc2ccccc2[nH]1 — 4-fold higher, 790 nM
- O=C(NC1CCN(CC2(c3ccc(Cl)cc3)CCC2)CC1)c1cscn1 — 2.6-fold higher, 530 nM
- COc1ccc2nccc(NC(=O)C3(O)CCC(NCc4ncc5c(c4Cl)OCCO5)CC3)c2n1 (stereo not given) — within 1.5-fold, 250 nM
- Cc1cccc2[nH]c(-c3cccc(-c4cccc(CNCCN5CCNCC5)c4)c3)nc12 — 4.8-fold higher, 970 nM
- C=CCN(c1ccc(OC)cc1)S(=O)(=O)c1ccc(Cl)c(C(=O)Nc2cccc(C#N)c2)c1 — 2.9-fold higher, 580 nM
- COC(=O)c1ccc(CC(C)NCC(O)c2ccc3ccc4ccccc4c3c2)cc1 (stereo not given) — within 1.5-fold, 220 nM
- Cc1cccc2[nH]c(-c3ccc(-c4cccc(CN5CCN(CC6CCCN(C)C6)CC5)c4)s3)nc12 (stereo not given) — 1.7-fold lower, 120 nM
- O=C(/C=C/c1ccc(Cl)c(Cl)c1)NCCCCCCN1CCCN(C(=O)Nc2ccc(Cl)c(Cl)c2)CC1 — 3.4-fold higher, 670 nM
- O=C(C=Cc1ccc(Br)cc1)NC1CCC(CN2CCC(c3c[nH]c4ccccc34)CC2)CC1 (stereo not given) — 3.4-fold higher, 680 nM
- O=[N+]([O-])c1cccc(CNC2CCN(Cc3ccc(C(F)(F)F)cc3)CC2)c1 — 3.7-fold higher, 740 nM
- COc1cc(OC)cc(C(=O)Nc2cccc(-c3cn4ccc(C)cc4n3)c2)c1 — 5-fold higher, 990 nM
- CC(C)(C)c1ccc2nc(-c3ccc(C(=O)NC4CCN(Cc5ccccc5)CC4)s3)[nH]c2c1 — 1.8-fold higher, 360 nM
- CC(=O)Nc1ccc(CN2CCC(N(C)c3ccc(NC(=O)c4cccc(C)c4)cc3)CC2)cc1 — 5-fold higher, 990 nM
- CCc1nc(N)nc(N)c1-c1ccc(F)c(F)c1 — 2.1-fold higher, 420 nM
- Cc1cccc(CNc2nc(C)cc(N[C@@H](Cc3ccccc3)C(=O)NCCc3ccccc3)n2)c1 — 3.4-fold higher, 670 nM
- CCN(CC)CCOc1ccc(Nc2ncc3cc(-c4c(Cl)cccc4Cl)c(=O)n(C)c3n2)cc1 — 5.9-fold higher, 1180 nM
- CCC(COCc1ccc(Cl)cc1)N(C)CCN(C)C(CC)COCc1ccc(Cl)cc1 (stereo not given) — 5.3-fold higher, 1060 nM
- Cc1cccc2[nH]c(-c3ccc(-c4ccc(NC(=O)Nc5cccc(C#N)c5)cc4)cc3)nc12 — 1.8-fold lower, 110 nM
- O=C(Nc1cccc(-c2ccc(-c3nc4ccc(F)cc4[nH]3)s2)c1)c1ccncc1 — 3.5-fold higher, 700 nM
- CCCCN(Cc1cc(Cl)c(OC)c(OC)c1)c1ccc(C(O)(C(F)(F)F)C(F)(F)F)cc1 — within 1.5-fold, 190 nM
- CC(C)c1ccc(CN2CCCCC(NC(=O)c3cc(-c4cccc(F)c4)cs3)C2)cc1 (stereo not given) — 4.7-fold higher, 940 nM
- O=C1CSc2ccc(CNC3CCN(CCc4c(F)cnc5ccc(F)cc45)CC3)nc2N1 — 2.6-fold higher, 520 nM
- Oc1cc(Nc2ccnc3cc(-c4ccc(CN5CCCCC5)o4)ccc23)c(Cl)cc1F — 1.7-fold lower, 120 nM
- COc1ccc(CCn2c(=N)c(C(=O)NCc3ccccc3)cc3c(=O)n4cccc(C)c4nc32)cc1 — 1.7-fold higher, 340 nM
- O=C(Nc1cccc(-c2cccc(-c3nc4ccc(F)cc4[nH]3)c2)c1)c1cnc[nH]1 — 2.3-fold higher, 460 nM
- Cc1cc(-c2ncc[nH]2)ccc1-c1ccc(C(=O)N2CCc3cc4c(cc32)C2(CCN(C)CC2)CO4)cc1 — 4-fold higher, 800 nM
- CCOc1cc(C(=O)NC2CC(C)(C)NC(C)(C)C2)ccc1-c1nc2ccc(Cl)cc2[nH]1 — 5-fold higher, 990 nM
- COc1ccc(-c2cccc(NC(=O)c3cccc(C#N)c3)c2)cc1CNC(C)C — 3.5-fold higher, 690 nM
- COc1ccccc1C1CC(c2ccccc2)=NN1C(=O)c1ccccc1 (stereo not given) — 1.5-fold higher, 300 nM
- COc1cc(CCN=C(N)/C=C/c2ccc(Cl)cc2)ccc1Cl — within 1.5-fold, 240 nM
- CN(C)C(=S)N=Nc1c(O)[nH]c2ccccc12 — 5.2-fold higher, 1050 nM
- CCc1cccc(-c2cc(=N)n(C)c3nc(N)[nH]c(=O)c23)c1 — 5.6-fold higher, 1120 nM
- Cc1nn(-c2ccccc2)c2nc(-c3ccccc3)cc(C(=O)N3CCOCC3)c12 — 4.3-fold higher, 870 nM
- CC(C)[C@@H](C(=O)NCc1cccc(C(F)(F)F)c1)N1C(=O)CCC1C(=O)Nc1ccc([N+](=O)[O-])cc1 (stereo not given in full) — 4.7-fold higher, 930 nM
- COc1ccc2nc(-c3ccc(F)cc3)cc([C@@H](O)[C@@H]3C[C@@H]4CCN3CC4C=NO)c2c1 (stereo not given in full) — within 1.5-fold, 250 nM
- CC[C@H]1CN2CC[C@H]1C[C@H]2[C@H](O)c1cc(-c2ccc3ccccc3c2)nc2ccc(OC)cc12 — 2-fold lower, 100 nM
- CCc1cc(OC)ccc1C1CCN(CCCCNC(=O)c2ccc(NC(=O)c3ccc(Cl)cc3)cc2)CC1 — 5.3-fold higher, 1070 nM
- CCN(CC)CCNC(=O)/C(=C/C=C/c1cc2cc(Cl)c(Cl)cc2[nH]1)OC — 4.7-fold higher, 930 nM
- Cc1ccccc1C1CCN(C2CCC(NC(=O)/C=C/c3cc(C(F)(F)F)ccc3F)CC2)CC1 (stereo not given) — 4.2-fold higher, 840 nM
- CS(=O)(=O)Cc1ccc(Nc2nccc(-c3c(-c4cccc(C(=O)Nc5c(F)cccc5F)c4)nn4ccccc34)n2)cc1 — 2.6-fold higher, 530 nM
- CC(C)N1CCN(C(=O)c2ccc(CN(C)CCCN3CCN(c4cccc(Cl)c4Cl)CC3)s2)CC1 — 5-fold higher, 990 nM
- CCn1ccc2c(N3CCCS3(=O)=O)cc(C(=O)N[C@@H](Cc3ccccc3)[C@H](O)CNC(C)(C)c3cccc(OC)c3)cc21 — 5-fold lower, 40 nM
- Fc1ccc(C(OCC2CCCN(Cc3cccc4cccnc34)C2)c2ccc(F)cc2)cc1 (stereo not given) — 3.5-fold higher, 700 nM
- O=C(/C=C/c1ccc(Cl)c(Cl)c1)N1CCC(CN2CCC(c3c[nH]c4ncccc34)CC2)CC1 — 5.5-fold higher, 1090 nM
- CS(=O)(=O)Cc1ccc(Nc2nccc(NC3CCN(c4nccc(C(F)(F)F)n4)CC3)n2)cc1 — 4.5-fold higher, 900 nM
- Clc1ccc(-c2csc3ncnc(Cl)c23)cc1 — 2.3-fold higher, 460 nM
- COc1ccc2nccc(N(C)CC3(O)CCN(CCc4ccc5c(c4)OCCO5)CC3)c2n1 — within 1.5-fold, 140 nM
- COc1ccc(C(C)Nc2nc(N)c3cc(OC)c(OC)cc3n2)cc1 (stereo not given) — 4.7-fold higher, 940 nM
- O=C(Nc1ccc(C(=O)OC[C@@H]2CCCN3CCCC[C@H]23)cc1)c1ccc([N+](=O)[O-])cc1 — 3.6-fold higher, 720 nM
- CC(C)c1ccc(CN2CCCCC(NC(=O)c3cc(-c4ccccc4Cl)cs3)C2)cc1 (stereo not given) — 5.6-fold higher, 1120 nM
- CN1CCc2cc(NS(=O)(=O)c3ccc(-c4ccc(Cl)s4)cc3)c(N3CCCCC3)cc2CC1 — 3.6-fold higher, 730 nM
- CCCCCCCN1CC[C@@H](CCCc2ccnc3ccc(OC)cc23)[C@@H](CCN)C1 — 3.8-fold higher, 750 nM
- CC(=O)Nc1cccc(-c2cnc(N)c3cc(-c4ccc5c(c4)OCO5)ccc23)c1 — 2.5-fold higher, 490 nM
- CCCCOC(=O)c1ccc(NC(=O)Nc2ccc(Cn3ncc(N4CCCNCC4)c(Cl)c3=O)cc2)cc1 — 3.7-fold higher, 740 nM
- CCNc1cc(C(=O)N[C@@H](Cc2ccccc2)[C@H](O)CNC(C)C)cc(N2CC(c3ccccc3)CCS2(=O)=O)c1 (stereo not given in full) — 2-fold higher, 410 nM
- CCN(CC)CCCNC(=O)/C(=C/C=C/c1cc2cc(Cl)c(Cl)cc2[nH]1)OC — 5.8-fold higher, 1160 nM
- Cc1cc(Nc2ccc(Cl)cc2)n2nc(C(F)(F)F)nc2n1 — 1.7-fold lower, 120 nM
- CCCCOC(C(=O)OCC1CCCN1C)(c1ccccc1)c1ccccc1 (stereo not given) — 4-fold higher, 790 nM
- O=C(Cc1ccccn1)Nc1cccc(-c2cccc(-c3nc4ccc(C(F)(F)F)cc4[nH]3)c2)c1 — 3-fold higher, 610 nM
- Fc1ccc2nc(-c3ccc(-c4ccc(CNCC5CCCO5)cc4)cc3)[nH]c2c1 (stereo not given) — 2.2-fold higher, 440 nM
- COc1ccc(CNCc2ccccc2)cc1-c1cccc(S(=O)(=O)NCCN2CCCC2)c1 — 4-fold higher, 790 nM
- CCc1ccc(N2C(=O)C3C(Cc4ccc(OC(C)(C)C)cc4)NC4(C(=O)N(Cc5ccccc5)c5ccc(F)cc54)C3C2=O)cc1 (stereo not given) — 4-fold higher, 800 nM
- c1ccc2[nH]c(-c3ccc(-c4ccc(CN5CCN(CCN6CCOCC6)CC5)cc4)cc3)nc2c1 — within 1.5-fold, 160 nM
- COc1cc(NC(=O)Nc2ccc(Br)cc2C(=O)Nc2ccc(Br)cc2)cc(OC)c1OC — 3.8-fold higher, 760 nM
- COCC(C)n1c(SCC(=O)Nc2cc(C(F)(F)F)ccc2Cl)nc2ccccc2c1=O (stereo not given) — 1.5-fold lower, 130 nM
- c1ccc(C(OCCC2CCN(Cc3cccc4cccnc34)CC2)c2ccccc2)cc1 — 4.3-fold higher, 870 nM
- NC(=O)C1CCN(Cc2ccc(-c3ccc(-c4nc5ccc(C(F)(F)F)cc5[nH]4)s3)cc2)CC1 — 2.7-fold higher, 540 nM
- CCOc1c(Cl)cc(Cl)cc1CNCCCNc1nc2ccccc2[nH]1 — 4.2-fold higher, 830 nM
- O=C(Nc1ccnc(-c2cccnc2)n1)c1cc(C(F)(F)F)cc(C(F)(F)F)c1 — 4.1-fold higher, 820 nM
- COc1cc(NC(=O)/C=C/c2ccccc2OC(F)(F)F)cc(OCCN2CCCCC2)c1 — within 1.5-fold, 190 nM

In the case of `O=C(/C=C/c1ccccc1Cl)NC1CCC(CN2CCC(c3c[nH]c4ccccc34)CC2)CC1` (stereo not given), the IC50 is reported as 600 nM and 850 nM.
